Our source for the Kd values is ChEMBL document CHEMBL3991601, “The target landscape of clinical kinase drugs” (Science, 2017).

In assay [1] the target is Uncharacterized aarF domain-containing protein kinase 5 (Homo sapiens, UniProt Q3MIX3).
Assay [2] has as its target T1, UMP-CMP kinase (Homo sapiens, UniProt P30085).
T1 sequence (P30085 whole entry): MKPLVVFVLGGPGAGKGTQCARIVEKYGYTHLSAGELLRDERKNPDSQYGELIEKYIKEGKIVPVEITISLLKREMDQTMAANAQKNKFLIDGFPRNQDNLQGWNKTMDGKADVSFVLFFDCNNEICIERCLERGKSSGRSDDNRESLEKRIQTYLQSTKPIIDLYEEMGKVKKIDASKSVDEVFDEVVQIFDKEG

For assay [3], the target named is T2, Eukaryotic translation initiation factor 5B (Homo sapiens, UniProt O60841).
T2 sequence (O60841 whole entry): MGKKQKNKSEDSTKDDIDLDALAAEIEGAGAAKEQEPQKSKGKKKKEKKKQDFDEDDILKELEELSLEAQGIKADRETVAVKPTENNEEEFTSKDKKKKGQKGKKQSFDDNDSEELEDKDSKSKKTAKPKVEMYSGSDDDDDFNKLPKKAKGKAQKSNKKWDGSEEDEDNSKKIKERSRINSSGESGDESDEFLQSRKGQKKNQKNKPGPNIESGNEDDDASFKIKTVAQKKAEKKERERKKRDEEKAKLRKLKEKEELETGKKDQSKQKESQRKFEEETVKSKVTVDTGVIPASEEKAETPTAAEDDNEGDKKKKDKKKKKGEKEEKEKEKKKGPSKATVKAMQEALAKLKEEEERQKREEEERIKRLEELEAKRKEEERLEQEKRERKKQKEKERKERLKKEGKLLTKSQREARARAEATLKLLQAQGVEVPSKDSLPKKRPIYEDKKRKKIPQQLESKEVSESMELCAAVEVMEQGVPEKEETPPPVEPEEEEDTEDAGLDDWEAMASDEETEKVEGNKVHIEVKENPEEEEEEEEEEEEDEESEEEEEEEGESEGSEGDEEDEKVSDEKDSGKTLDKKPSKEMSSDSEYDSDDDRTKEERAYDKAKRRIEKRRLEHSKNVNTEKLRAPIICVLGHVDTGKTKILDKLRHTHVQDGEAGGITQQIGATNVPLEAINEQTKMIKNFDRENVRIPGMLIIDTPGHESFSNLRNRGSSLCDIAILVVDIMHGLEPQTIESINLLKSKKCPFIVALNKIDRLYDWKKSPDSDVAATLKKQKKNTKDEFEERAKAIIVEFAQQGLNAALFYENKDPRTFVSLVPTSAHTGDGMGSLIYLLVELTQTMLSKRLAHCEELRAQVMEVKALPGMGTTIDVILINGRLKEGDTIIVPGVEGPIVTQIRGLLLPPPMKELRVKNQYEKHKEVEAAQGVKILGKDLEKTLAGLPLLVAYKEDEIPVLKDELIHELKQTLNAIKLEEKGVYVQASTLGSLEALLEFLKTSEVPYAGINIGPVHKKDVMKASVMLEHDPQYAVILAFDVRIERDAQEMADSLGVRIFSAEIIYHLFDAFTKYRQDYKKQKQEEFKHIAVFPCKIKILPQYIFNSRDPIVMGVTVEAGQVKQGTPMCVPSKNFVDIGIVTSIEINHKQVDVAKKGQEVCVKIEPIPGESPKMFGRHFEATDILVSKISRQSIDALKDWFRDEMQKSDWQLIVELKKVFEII

Assay [4] addresses Myosin-10 (Homo sapiens, UniProt P35580).
Assay [5] addresses G protein-coupled receptor kinase 6 (Homo sapiens, UniProt P43250).
Assay [6] concerns the target Dual specificity protein kinase CLK2 (Homo sapiens, UniProt P49760).
Assay [7] concerns the target Hepatocyte growth factor receptor (Homo sapiens, UniProt P08581).
Assay [8] has as its target T3, ATP-dependent RNA helicase DHX30 (Homo sapiens, UniProt Q7L2E3).
T3 sequence (Q7L2E3 whole entry): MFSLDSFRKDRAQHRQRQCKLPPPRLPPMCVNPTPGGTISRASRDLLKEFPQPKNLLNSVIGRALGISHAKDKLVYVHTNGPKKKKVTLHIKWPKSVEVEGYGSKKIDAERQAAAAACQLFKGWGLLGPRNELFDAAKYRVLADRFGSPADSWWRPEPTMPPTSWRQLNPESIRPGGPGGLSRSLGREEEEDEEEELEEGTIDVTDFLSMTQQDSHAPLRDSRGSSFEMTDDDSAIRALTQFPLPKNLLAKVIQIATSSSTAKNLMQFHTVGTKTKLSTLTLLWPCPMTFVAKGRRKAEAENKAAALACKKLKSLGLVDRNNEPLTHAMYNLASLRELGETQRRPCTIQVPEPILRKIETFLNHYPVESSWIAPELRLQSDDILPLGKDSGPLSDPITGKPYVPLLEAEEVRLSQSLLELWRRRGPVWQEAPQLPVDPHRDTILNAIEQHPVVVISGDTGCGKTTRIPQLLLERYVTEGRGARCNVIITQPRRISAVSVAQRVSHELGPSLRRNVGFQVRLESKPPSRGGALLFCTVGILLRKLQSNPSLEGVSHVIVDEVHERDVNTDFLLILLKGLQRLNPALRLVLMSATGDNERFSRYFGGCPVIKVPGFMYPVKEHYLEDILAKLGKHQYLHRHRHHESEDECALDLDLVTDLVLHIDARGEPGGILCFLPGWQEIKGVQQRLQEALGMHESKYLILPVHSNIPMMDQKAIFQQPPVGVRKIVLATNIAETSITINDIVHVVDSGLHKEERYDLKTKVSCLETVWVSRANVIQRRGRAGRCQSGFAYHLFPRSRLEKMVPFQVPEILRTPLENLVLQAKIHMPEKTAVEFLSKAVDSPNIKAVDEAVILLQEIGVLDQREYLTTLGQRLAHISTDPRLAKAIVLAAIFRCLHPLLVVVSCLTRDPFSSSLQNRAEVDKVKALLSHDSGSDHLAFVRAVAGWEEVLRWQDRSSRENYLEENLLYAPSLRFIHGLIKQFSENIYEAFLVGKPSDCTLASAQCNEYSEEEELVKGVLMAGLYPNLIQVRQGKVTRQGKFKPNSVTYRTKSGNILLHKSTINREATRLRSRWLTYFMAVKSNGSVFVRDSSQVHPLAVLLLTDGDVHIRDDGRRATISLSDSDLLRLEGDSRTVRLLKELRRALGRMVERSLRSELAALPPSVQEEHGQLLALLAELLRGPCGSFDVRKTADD

Assay [9] deals with Dual specificity testis-specific protein kinase 2 (Homo sapiens, UniProt Q96S53).
In assay [10] the target is Rho-associated protein kinase 1 (Homo sapiens, UniProt Q13464).
In assay [11] the target is Tyrosine-protein kinase Lck (Homo sapiens, UniProt P06239).

pKd: −log10 of the molar value. Calls of active or inactive are those of the source.
Further: in the data inactive means no Kd found up to 30 µM.

Chain of Tyrosine-protein kinase Lck (P06239 whole entry): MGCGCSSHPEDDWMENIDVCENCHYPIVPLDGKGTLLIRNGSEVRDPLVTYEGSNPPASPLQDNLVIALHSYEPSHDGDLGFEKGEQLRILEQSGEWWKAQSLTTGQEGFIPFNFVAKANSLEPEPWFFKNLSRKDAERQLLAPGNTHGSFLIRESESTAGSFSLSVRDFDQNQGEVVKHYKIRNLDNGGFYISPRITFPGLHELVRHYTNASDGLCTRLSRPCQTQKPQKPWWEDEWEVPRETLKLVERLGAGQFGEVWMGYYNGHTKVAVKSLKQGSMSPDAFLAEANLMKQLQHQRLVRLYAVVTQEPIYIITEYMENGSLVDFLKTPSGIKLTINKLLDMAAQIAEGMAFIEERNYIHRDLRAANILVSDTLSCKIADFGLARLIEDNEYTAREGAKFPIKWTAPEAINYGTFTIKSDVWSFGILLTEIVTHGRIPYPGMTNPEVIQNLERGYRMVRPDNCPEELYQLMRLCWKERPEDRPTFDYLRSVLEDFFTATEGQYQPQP
Chain of Dual specificity testis-specific protein kinase 2 (Q96S53 whole entry): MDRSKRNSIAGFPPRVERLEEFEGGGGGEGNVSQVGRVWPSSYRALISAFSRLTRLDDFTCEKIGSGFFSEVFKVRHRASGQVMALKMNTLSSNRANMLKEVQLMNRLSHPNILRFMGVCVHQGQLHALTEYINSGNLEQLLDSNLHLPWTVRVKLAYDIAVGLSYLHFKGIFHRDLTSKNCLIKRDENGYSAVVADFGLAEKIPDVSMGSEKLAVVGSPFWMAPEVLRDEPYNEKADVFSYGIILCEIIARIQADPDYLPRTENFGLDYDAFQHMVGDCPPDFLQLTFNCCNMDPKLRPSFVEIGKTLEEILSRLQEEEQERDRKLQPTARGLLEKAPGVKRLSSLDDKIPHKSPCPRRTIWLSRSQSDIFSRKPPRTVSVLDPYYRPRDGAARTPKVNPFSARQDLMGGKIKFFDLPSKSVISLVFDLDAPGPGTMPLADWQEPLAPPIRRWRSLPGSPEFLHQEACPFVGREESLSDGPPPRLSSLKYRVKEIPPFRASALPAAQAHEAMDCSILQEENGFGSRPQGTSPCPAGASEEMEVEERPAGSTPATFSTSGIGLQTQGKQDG
Chain of Myosin-10 (P35580 whole entry): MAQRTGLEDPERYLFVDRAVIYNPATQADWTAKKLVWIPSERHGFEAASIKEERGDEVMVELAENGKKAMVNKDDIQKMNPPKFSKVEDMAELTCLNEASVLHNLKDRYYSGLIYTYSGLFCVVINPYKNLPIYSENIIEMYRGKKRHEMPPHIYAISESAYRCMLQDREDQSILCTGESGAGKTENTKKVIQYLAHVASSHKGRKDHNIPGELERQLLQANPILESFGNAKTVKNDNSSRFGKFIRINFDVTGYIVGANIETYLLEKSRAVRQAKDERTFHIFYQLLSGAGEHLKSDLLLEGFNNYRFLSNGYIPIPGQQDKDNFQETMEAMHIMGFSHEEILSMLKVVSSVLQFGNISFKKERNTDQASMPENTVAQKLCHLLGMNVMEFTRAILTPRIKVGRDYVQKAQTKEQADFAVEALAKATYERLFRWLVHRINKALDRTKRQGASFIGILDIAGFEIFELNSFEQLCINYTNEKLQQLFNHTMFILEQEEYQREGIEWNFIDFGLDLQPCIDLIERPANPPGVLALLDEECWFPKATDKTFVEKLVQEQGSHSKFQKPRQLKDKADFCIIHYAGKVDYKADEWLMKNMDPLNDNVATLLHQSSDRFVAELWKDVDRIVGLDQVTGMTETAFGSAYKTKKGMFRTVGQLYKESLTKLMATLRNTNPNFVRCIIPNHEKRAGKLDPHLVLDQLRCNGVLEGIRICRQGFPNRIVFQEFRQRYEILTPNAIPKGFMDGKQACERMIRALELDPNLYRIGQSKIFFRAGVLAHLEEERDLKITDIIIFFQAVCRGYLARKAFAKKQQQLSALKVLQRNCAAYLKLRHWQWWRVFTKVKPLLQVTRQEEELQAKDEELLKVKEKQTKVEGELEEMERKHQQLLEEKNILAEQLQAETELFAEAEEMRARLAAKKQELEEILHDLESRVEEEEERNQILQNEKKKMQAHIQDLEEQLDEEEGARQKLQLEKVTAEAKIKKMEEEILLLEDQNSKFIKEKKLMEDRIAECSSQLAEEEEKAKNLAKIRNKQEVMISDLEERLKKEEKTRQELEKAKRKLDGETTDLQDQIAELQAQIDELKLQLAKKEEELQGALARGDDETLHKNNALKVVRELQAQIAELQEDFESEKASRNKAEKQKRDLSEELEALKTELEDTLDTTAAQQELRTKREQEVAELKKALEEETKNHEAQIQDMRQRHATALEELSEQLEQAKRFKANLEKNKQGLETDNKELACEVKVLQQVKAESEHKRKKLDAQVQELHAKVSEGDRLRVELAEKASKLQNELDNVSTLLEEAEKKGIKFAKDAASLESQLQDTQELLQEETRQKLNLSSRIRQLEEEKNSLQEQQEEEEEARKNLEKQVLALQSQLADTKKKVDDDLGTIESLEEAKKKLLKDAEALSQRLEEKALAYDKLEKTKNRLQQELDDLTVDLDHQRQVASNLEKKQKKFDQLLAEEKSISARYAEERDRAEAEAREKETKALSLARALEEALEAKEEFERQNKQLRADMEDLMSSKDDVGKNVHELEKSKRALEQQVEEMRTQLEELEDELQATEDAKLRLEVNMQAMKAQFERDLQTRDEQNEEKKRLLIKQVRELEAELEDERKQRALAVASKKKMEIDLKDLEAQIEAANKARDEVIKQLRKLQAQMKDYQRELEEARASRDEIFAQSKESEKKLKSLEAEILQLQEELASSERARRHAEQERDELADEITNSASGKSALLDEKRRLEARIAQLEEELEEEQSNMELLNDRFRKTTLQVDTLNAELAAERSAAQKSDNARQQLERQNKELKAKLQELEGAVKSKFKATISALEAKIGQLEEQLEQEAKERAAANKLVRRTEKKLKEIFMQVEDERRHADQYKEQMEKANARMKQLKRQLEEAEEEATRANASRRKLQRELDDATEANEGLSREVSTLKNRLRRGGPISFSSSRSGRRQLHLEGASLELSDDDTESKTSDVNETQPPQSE
Chain of Hepatocyte growth factor receptor (P08581 whole entry): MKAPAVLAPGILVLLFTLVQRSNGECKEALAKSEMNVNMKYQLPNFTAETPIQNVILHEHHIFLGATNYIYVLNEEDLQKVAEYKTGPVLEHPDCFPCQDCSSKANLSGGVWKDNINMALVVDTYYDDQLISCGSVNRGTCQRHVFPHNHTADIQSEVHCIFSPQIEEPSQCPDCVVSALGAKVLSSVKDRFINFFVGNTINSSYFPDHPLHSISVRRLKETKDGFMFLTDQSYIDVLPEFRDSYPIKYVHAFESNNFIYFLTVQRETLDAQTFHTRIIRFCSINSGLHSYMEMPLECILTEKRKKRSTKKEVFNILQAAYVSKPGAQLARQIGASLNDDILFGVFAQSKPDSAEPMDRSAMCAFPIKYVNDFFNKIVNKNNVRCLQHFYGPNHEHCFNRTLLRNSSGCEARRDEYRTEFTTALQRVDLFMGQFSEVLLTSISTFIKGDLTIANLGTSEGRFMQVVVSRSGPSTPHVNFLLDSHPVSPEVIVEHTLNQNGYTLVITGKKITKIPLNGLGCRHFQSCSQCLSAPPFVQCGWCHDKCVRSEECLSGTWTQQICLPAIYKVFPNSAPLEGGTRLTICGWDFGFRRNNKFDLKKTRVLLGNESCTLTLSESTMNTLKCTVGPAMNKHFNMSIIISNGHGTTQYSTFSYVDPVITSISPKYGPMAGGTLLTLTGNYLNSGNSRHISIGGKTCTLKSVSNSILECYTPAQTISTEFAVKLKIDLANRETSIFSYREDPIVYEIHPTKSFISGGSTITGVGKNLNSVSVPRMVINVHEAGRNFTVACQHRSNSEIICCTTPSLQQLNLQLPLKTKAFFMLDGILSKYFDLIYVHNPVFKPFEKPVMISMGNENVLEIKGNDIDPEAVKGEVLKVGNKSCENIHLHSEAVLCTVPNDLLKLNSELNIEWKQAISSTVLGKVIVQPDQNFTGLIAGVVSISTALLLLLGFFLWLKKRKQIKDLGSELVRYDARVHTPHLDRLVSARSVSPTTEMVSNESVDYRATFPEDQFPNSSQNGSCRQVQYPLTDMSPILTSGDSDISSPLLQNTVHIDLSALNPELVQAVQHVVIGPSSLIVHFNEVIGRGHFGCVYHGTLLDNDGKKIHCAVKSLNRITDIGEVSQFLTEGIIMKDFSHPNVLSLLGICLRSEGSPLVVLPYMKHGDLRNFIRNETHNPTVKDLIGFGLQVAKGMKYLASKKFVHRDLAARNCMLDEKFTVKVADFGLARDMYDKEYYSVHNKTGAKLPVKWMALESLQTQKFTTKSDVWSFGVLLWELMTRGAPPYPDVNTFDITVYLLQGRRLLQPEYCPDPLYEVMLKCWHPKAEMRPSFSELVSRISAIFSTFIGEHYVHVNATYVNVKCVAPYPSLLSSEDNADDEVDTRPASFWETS
Chain of G protein-coupled receptor kinase 6 (P43250 whole entry): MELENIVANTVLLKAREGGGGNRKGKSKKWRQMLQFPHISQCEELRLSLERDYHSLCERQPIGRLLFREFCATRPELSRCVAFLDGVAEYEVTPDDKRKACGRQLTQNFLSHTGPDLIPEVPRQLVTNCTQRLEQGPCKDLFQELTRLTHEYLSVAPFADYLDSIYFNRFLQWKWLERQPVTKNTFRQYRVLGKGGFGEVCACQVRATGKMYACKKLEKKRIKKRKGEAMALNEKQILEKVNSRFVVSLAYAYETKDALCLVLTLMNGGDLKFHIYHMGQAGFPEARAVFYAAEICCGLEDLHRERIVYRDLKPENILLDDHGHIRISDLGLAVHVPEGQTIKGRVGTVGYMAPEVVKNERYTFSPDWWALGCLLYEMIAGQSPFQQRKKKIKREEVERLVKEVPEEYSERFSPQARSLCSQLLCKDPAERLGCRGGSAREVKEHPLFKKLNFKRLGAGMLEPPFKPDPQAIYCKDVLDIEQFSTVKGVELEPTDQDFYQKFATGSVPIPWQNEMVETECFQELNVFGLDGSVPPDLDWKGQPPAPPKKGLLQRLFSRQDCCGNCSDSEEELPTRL

Turning to `Cn1c(=O)n(-c2ccc(C(C)(C)C#N)cc2)c2c3cc(-c4cnc5ccccc5c4)ccc3ncc21` [DACTOLISIB], the Kd in assay [1], in assay [2], in [3] and in [4] was > 30 µM (inactive) each time.

In the case of `O=S(=O)(c1cccc2c(O)nccc12)N1CCCNCC1` [HYDROXYFASUDIL], the Kd in assay [1], in [2], in assay [5], in [3], in [4] and in [6] was > 30 µM (inactive) throughout. Besides, the Kd (commonly a measure of binding affinity in units of concentration) in assay [7] is > 30 µM (inactive).

As to `CN(c1ncccc1CNc1nc(Nc2ccc3c(c2)CC(=O)N3)ncc1C(F)(F)F)S(C)(=O)=O` [PF-00562271], the Kd in assay [1], in assay [2], in assay [3] and in assay [4] was > 30 µM (inactive) throughout.

`COc1cc2c(Oc3ccc4[nH]c(C)cc4c3F)ncnc2cc1OCCCN1CCCC1` [CEDIRANIB]: the Kd in assay [1], in assay [8], in assay [2], in assay [5], in assay [3] and in assay [4] was > 30 µM (inactive) in each case. The Kd in assay [9] was > 30 µM (inactive).

Consider `COCCN1CCN(Cc2ccc(-c3n[nH]c4c3C(=O)c3c(NC(=O)NN5CCOCC5)cccc3-4)cc2)CC1` [RGB-286638], for which the Kd in assay [1], in [8], in [2], in assay [3], in assay [4] and in assay [10] was > 30 µM (inactive) in each case. Besides, the Kd in assay [6] was 0.018 µM (active); in assay [11], > 30 µM (inactive); in assay [7], > 30 µM (inactive).

Regarding `CC1(C)CNc2cc(NC(=O)c3cccnc3NCc3ccncc3)ccc21` [MOTESANIB], the Kd in [1], in assay [8], in [2], in assay [5], in assay [3] and in assay [4] was > 30 µM (inactive) in each case. The Kd in assay [9] was > 30 µM (inactive).

Consider `COc1cc(Nc2ncc(F)c(Nc3ccc4c(n3)N(COP(=O)(O)O)C(=O)C(C)(C)O4)n2)cc(OC)c1OC` [FOSTAMATINIB], for which the Kd in assay [1], in [8], in assay [2], in assay [4], in assay [10] and in assay [9] was > 30 µM (inactive) each time. In addition, the Kd in [11] and in assay [7] was > 30 µM (inactive) in each case.

For the compound `C=CCn1c(=O)c2cnc(Nc3ccc(N4CCN(C)CC4)cc3)nc2n1-c1cccc(C(C)(C)O)n1` [ADAVOSERTIB], the Kd in [1], in assay [8], in assay [2], in assay [3] and in assay [9] was > 30 µM (inactive) each time.

For the compound `O=S(=O)(c1cccc2cnccc12)N1CCCNCC1` [FASUDIL], the Kd in [1], in assay [8], in assay [2], in assay [5], in assay [3] and in assay [4] was > 30 µM (inactive) throughout. Besides, the Kd in assay [9] was > 30 µM (inactive).

Take `Cc1cc(Nc2nc(N[C@@H](C)c3ncc(F)cn3)ncc2Cl)n[nH]1` [AZD-1480]: the Kd in assay [8], in assay [2], in assay [5], in [3], in assay [4] and in assay [10] was > 30 µM (inactive) each time. The Kd in [6], in assay [9], in [11] and in assay [7] was > 30 µM (inactive) in each case.

In the case of `Cc1ccc(C(=O)Nc2ccc(Oc3cc4cnn(C)c4cc3-c3cn[nH]c3)c(F)c2)c(=O)n1-c1ccc(F)cc1` [MERESTINIB], the Kd in assay [1], in [8], in assay [2], in [5], in assay [3] and in assay [4] was > 30 µM (inactive) throughout. Also, the Kd in assay [10], in assay [6] and in assay [11] was > 30 µM (inactive) each time.

With `CC(C)CC(=O)Nc1[nH]nc2c1CN(C(=O)C1CCN(C)CC1)C2(C)C` [PHA-793887], the Kd in assay [1], in [2], in [5], in assay [3] and in assay [4] was > 30 µM (inactive) each time. The negative logarithm of the Kd (pKd) (usually −log10 of the Kd, conventionally taken in molar units) in assay [6] is 8.15.

For the compound `CC1(COc2ccc3c(c2)ncn3-c2ccc3cccc(N4CCC(N)CC4)c3n2)COC1` [CRENOLANIB], the Kd was > 30 µM (inactive) in assay [1]; > 30 µM (inactive) in assay [8]; 0.003 µM (active) in assay [2]; > 30 µM (inactive) in [5]; > 30 µM (inactive) in assay [3]; > 30 µM (inactive) in assay [4]. For the same compound, the Kd in assay [10], in assay [9] and in assay [7] was > 30 µM (inactive) each time.
